Some test systems named below: SK-MEL-2 melanoma; LOX IMVI melanoma; NCI-H460 lung; CAKI-1 renal; SW-620 colon; SNB-19 CNS; NCI-H226 lung; UACC-257 melanoma; OVCAR-4 ovarian; HCT-116 colon.
Common to all, as to experiment: NCI-60 cell line screen, 48 h

Our source for the GI50 and TGI values is PubChem BioAssay (NCI).

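All cell lines were grown in 96-well plates and treated with compound for 48 hours. The concentration for 50% growth inhibition is given as GI50. At the TGI there is no net growth.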

`O=C1N=C(Nc2nc(-c3csc(NC4=NC(=O)/C(=C\c5ccc(Cl)cc5)S4)n3)cs2)S/C1=C/c1ccc(Cl)cc1`: the GI50 with SK-MEL-2 melanoma is > 50 µM; with LOX IMVI melanoma, 8.34 µM; with NCI-H460 lung, 7.86 µM; in the experiment with CAKI-1 renal it was 20 µM; in the experiment on SW-620 colon, 39 µM; in the experiment on SNB-19 CNS, 12 µM. Besides, the GI50 is 3.79 µM in the experiment on NCI-H226 lung and 5.14 µM in the experiment on UACC-257 melanoma. The TGI in the experiment on SK-MEL-2 melanoma, with LOX IMVI melanoma, in the experiment on NCI-H460 lung, with CAKI-1 renal, with SW-620 colon and with SNB-19 CNS was > 50 µM in each case. Also, the figures for the TGI with NCI-H226 lung and in the experiment on UACC-257 melanoma were 22.3 µM and 18.1 µM, respectively.

For `O=C1c2ccccc2C(=O)c2c1ccc1c2N=C(c2ccc(Br)cc2)CC(c2cccc3ccccc23)N1` (stereo not given), the TGI in the experiment with SK-MEL-2 melanoma, in the experiment with LOX IMVI melanoma, with NCI-H460 lung, in the experiment with CAKI-1 renal, with OVCAR-4 ovarian and with SW-620 colon was > 100 µM throughout. Moreover, the TGI in the experiment with SNB-19 CNS, in the experiment on NCI-H226 lung and with UACC-257 melanoma was > 100 µM in each case.

With `N#Cc1cn(-c2c3ccccc3nc3ccccc23)c(=O)[nH]c1=O`, the TGI came to 24.9 µM with SK-MEL-2 melanoma; 21.2 µM with LOX IMVI melanoma; 45.6 µM with CAKI-1 renal; 20.4 µM in the experiment on OVCAR-4 ovarian; 38 µM with SW-620 colon; 90.7 µM in the experiment on SNB-19 CNS. The TGI was > 100 µM in the experiment on HCT-116 colon and 27.7 µM with UACC-257 melanoma.

As to `CC1(C)CC(N2CCN(C3CC(C)(C)NC(C)(C)C3)CC2)CC(C)(C)N1`, the TGI in the experiment with LOX IMVI melanoma, with NCI-H460 lung, in the experiment with CAKI-1 renal, with OVCAR-4 ovarian, in the experiment on SW-620 colon and in the experiment with SNB-19 CNS was > 100 µM each time. The TGI in the experiment on HCT-116 colon and in the experiment on UACC-257 melanoma was > 100 µM each time.

`Cc1ccc2nc3c(C)cc(=O)cc-3sc2c1`: the TGI with SK-MEL-2 melanoma is 52.7 µM; in the experiment with NCI-H460 lung it was 60.6 µM; in the experiment with CAKI-1 renal it was 37.4 µM; with OVCAR-4 ovarian, 33.6 µM; with SW-620 colon, 31.1 µM; with SNB-19 CNS, > 100 µM. The TGI with NCI-H226 lung was > 100 µM; with HCT-116 colon, 34.2 µM; in the experiment on UACC-257 melanoma it was 59.2 µM.

For `Cc1c(O)c(Br)c(C)c(O)c1Br` (tested in a mixture with another compound), the TGI in the experiment with SK-MEL-2 melanoma is 10.7 µM; in the experiment with LOX IMVI melanoma, 3.44 µM; in the experiment on NCI-H460 lung, 16.1 µM; in the experiment with CAKI-1 renal, 3.67 µM; in the experiment with OVCAR-4 ovarian, 3.04 µM; in the experiment with SW-620 colon, 6.83 µM. Besides, the TGI with SNB-19 CNS stood at 41.7 µM; in the experiment with NCI-H226 lung it was 14.8 µM; in the experiment on UACC-257 melanoma it was 3.02 µM.

`CC1(C)OC(=O)C(=Cc2ccc([N+](=O)[O-])s2)C(=O)O1`: the TGI in the experiment with LOX IMVI melanoma is 32.6 µM; in the experiment on NCI-H460 lung, > 100 µM; in the experiment with CAKI-1 renal, 29.5 µM; in the experiment with SW-620 colon it was 4.1 µM; in the experiment on SNB-19 CNS, 31.6 µM; in the experiment on NCI-H226 lung, 60.5 µM. Besides, the figures for the TGI in the experiment on HCT-116 colon and with UACC-257 melanoma were 9.84 µM and 35.8 µM, respectively.

On to `COC(=O)C1(C)CCCC2(C)c3cc(OC)ccc3C(=O)C(Br)C12` (stereo not given), for which the TGI in the experiment on SK-MEL-2 melanoma was > 10 µM; in the experiment with LOX IMVI melanoma, > 10 µM; in the experiment on NCI-H460 lung, > 10 µM; with CAKI-1 renal, > 10 µM; in the experiment on SW-620 colon it was 4.39 µM; in the experiment on SNB-19 CNS it was > 10 µM. Besides, the TGI in the experiment with NCI-H226 lung is > 10 µM; in the experiment on HCT-116 colon, 7.23 µM; in the experiment with UACC-257 melanoma it was > 10 µM.

Turning to `O=C(/C=C/c1ccc(O)cc1)c1cc(Cl)ccc1O`, the TGI in the experiment with LOX IMVI melanoma is 56.2 µM; in the experiment with NCI-H460 lung it was > 100 µM; in the experiment with CAKI-1 renal it was > 100 µM; in the experiment on OVCAR-4 ovarian it was > 100 µM; in the experiment on SW-620 colon, > 100 µM; in the experiment on SNB-19 CNS, > 100 µM. Besides, the TGI with NCI-H226 lung is > 100 µM; in the experiment with HCT-116 colon, 58 µM; in the experiment with UACC-257 melanoma it was > 100 µM.

`Cc1ccc(NC(=O)C(=O)CC(=O)c2ccccc2)cc1C`: the TGI in the experiment with LOX IMVI melanoma, with NCI-H460 lung, in the experiment with CAKI-1 renal, in the experiment with OVCAR-4 ovarian, in the experiment on SW-620 colon and in the experiment on SNB-19 CNS was > 100 µM in each case. Further, the TGI in the experiment with NCI-H226 lung, in the experiment with HCT-116 colon and with UACC-257 melanoma was > 100 µM throughout.

With `c1ccc2c(c1)N=C(c1ccc3ccccc3c1)CC(c1cccc3ccccc13)S2` (stereo not given), the TGI with SK-MEL-2 melanoma, in the experiment on LOX IMVI melanoma, in the experiment with NCI-H460 lung, with CAKI-1 renal, in the experiment on OVCAR-4 ovarian and in the experiment with SW-620 colon was > 100 µM throughout. Further, the TGI in the experiment with SNB-19 CNS, in the experiment on NCI-H226 lung and with UACC-257 melanoma was > 100 µM each time.

Take `CNCCN(C)Cc1cn[nH]c1-c1ccc(OC2CC(OCCC3CCOCC3)C2)cc1` (stereo not given): the GI50 was > 100 µM in the experiment with SK-MEL-2 melanoma; 60.1 µM in the experiment with LOX IMVI melanoma; 97.9 µM in the experiment with NCI-H460 lung; > 85 µM in the experiment on OVCAR-4 ovarian; > 100 µM in the experiment on SW-620 colon; > 100 µM in the experiment with SNB-19 CNS. Besides, the GI50 in the experiment on NCI-H226 lung is > 100 µM; with HCT-116 colon, > 67.9 µM; in the experiment with UACC-257 melanoma, 61.6 µM. For the same molecule, the TGI in the experiment with SK-MEL-2 melanoma, with LOX IMVI melanoma, in the experiment with NCI-H460 lung, in the experiment on OVCAR-4 ovarian, with SW-620 colon and with SNB-19 CNS was > 100 µM throughout. Besides, the TGI in the experiment with NCI-H226 lung, in the experiment on HCT-116 colon and in the experiment with UACC-257 melanoma was > 100 µM in each case.

In the case of `Cn1cnc([N+](=O)[O-])c1Sc1nc2ccc([N+](=O)[O-])cc2[nH]1`, the TGI in the experiment with LOX IMVI melanoma was 60.1 µM; in the experiment on NCI-H460 lung, > 100 µM; with CAKI-1 renal it was 26.7 µM; in the experiment with OVCAR-4 ovarian it was > 100 µM; with SW-620 colon, > 100 µM; with SNB-19 CNS, > 100 µM. Moreover, the values for the TGI in the experiment on NCI-H226 lung, with HCT-116 colon and in the experiment on UACC-257 melanoma were > 100 µM, 57.8 µM and 33.5 µM, respectively.
